System: fibrin cross-linking in human plasma clots
Test: Inhibition of fibrin cross-linking in plasma clots (125I-fibrinogen, SDS-PAGE)
Assay type: biochemical
Details: platelet-depleted and platelet-rich human plasma clots; inactivator at 40, 80 and 160 μM, added before thrombin and CaCl2
Protocol: Citrated human plasma (0.3 mL) containing 2-4 μg/mL of ^125I-labeled fibrinogen (specific activity approx. 200 μCi/mg, at least 85% clotability, Amersham Pharmacia Biotech UK Ltd.) was clotted by the addition of CaCl2 (6.4 μL) to a final concentration of 50 mM and thrombin (6.2 μL) to a final concentration of 5 units/mL. Solutions of Factor XIIIa inactivators in DMSO were added just prior to the addition of thrombin and CaCl2. In some cases the inactivator was dissolved and added to plasma in water. To these samples, DMSO (3.2 μL) was added, to make 1% final concentration. Conversely, water (3.2 μL) was added to clots to which inactivator was added in DMSO. In control samples both DMSO (3.2 μL) and water (3.2 μL) were added in place of the inactivator solution. Typically, only 20 μL of the mixture was withdrawn before clotting (the remainder of the solution was used for the fibrinolysis assay) and incubated at 37° C. for 30 min.
100 μL of 9 M urea containing 40 mM DTT was added and the solutions were incubated at 37° C. until the clots were completely dissolved. The samples were analyzed on SDS-PAGE gels using a standard procedure. The amount of radioactivity in each electrophoretic band was quantitated using a Storm 820 (Molecular Dynamics) autoradiography system after exposing the gel to a Kodak Storage Phosphor Screen. […]

SMILES: O=C(O)CN(CCCCCCNS(=O)(=O)c1ccccc1[N+](=O)[O-])c1nsc2nccn12 [H / CH2CO2H / 2-NO2-Ph, N-imidazo[1,2-d][1,2,4]thiadiazol-3-yl-N-(6-{[(2-nitrophenyl)sulfonyl]amino}hexyl)glycine]
- formation of high molecular weight polymer in plasma clots: inhibits the formation of high molecular weight polymer
